The text below walks through data of patent publication US12257323B2, “Modified wound dressings” (CONVATEC TECHNOLOGIES INC., priority 2016, dated 2025).

Series [1] in a line: Hydrogel formation in buffer viewed under light microscope. To be noted: pH 4 general lab buffer or pH 9 K2HPO4/MgCl2 buffer (20 μL each).
Series [2] addresses MMP-8 (Homo sapiens, UniProt P22894). The settings on record: cited from earlier work.
Series [3] has as its target MMP-3 (Homo sapiens, UniProt P08254). To be noted: cited from earlier work.
Series [4] deals with T1, MMP-1 (Homo sapiens, UniProt P03956).
T1 sequence (P03956 100-469): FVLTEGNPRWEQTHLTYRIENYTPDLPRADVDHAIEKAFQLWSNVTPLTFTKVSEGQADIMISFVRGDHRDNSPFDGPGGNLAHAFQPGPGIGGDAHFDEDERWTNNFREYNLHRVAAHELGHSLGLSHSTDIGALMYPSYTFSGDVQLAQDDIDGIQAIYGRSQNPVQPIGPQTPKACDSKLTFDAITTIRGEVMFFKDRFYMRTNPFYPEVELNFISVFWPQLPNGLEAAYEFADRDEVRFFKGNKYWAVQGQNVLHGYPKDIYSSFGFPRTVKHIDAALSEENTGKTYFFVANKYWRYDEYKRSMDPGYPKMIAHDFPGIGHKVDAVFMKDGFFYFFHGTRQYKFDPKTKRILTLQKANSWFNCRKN
The settings on record: cited from earlier work.

The target in series [5] is MMP-9 (Homo sapiens, UniProt P14780). The settings on record: cited from earlier work.
MMP-9, sequence (P14780 94-707): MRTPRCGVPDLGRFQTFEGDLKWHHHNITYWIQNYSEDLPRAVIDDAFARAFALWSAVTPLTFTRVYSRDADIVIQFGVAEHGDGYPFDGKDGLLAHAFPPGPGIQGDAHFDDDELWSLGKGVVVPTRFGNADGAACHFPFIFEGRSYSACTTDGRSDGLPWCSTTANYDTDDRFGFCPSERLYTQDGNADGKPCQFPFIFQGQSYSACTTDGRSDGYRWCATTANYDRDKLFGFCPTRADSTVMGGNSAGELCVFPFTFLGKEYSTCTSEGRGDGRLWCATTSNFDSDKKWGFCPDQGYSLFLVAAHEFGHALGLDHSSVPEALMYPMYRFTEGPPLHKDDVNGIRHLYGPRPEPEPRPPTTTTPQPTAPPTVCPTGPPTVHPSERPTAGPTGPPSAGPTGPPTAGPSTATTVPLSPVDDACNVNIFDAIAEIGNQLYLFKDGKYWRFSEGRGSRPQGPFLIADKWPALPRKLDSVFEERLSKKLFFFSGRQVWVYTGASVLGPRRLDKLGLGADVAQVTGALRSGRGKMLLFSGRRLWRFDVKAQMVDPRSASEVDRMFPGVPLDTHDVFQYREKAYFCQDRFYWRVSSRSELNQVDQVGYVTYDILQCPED
For series [6], the target named is T2, MMP-7 (Homo sapiens, UniProt P09237).
T2 sequence (P09237 95-267): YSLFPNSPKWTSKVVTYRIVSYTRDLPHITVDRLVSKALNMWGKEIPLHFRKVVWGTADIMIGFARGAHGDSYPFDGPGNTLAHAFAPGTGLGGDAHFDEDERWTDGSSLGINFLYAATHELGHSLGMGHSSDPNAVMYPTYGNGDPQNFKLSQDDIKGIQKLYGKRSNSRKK
The settings on record: cited from earlier work.

For series [7], the target named is T3, MMP-2 (Homo sapiens, UniProt P08253).
T3 sequence (P08253 110-660): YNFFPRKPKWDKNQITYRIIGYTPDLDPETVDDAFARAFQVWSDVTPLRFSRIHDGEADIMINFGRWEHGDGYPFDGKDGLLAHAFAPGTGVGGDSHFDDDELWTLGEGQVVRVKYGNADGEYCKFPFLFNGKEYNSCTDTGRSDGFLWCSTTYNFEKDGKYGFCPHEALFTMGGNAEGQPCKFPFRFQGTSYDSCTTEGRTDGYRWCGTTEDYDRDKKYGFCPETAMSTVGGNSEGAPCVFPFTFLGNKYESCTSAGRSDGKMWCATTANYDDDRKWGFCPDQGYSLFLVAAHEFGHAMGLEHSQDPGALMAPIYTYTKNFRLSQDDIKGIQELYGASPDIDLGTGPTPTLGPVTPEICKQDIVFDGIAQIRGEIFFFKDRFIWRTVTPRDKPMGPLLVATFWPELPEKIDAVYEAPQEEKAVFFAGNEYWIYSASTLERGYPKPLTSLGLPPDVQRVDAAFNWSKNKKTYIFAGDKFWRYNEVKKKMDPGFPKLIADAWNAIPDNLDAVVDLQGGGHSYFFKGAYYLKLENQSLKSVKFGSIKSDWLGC
The settings on record: cited from earlier work.

MMP-8, sequence (P22894 101-467): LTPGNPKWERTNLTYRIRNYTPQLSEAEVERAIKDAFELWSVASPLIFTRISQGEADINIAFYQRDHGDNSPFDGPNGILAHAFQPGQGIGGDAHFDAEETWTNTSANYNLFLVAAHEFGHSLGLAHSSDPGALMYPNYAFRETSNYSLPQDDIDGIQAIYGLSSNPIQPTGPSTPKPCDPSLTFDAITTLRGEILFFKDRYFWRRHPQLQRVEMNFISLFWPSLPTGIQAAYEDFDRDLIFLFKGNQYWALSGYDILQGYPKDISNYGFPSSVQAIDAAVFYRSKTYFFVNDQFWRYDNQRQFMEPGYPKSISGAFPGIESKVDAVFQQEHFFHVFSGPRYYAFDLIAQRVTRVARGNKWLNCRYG
MMP-3, sequence (P08254 100-477): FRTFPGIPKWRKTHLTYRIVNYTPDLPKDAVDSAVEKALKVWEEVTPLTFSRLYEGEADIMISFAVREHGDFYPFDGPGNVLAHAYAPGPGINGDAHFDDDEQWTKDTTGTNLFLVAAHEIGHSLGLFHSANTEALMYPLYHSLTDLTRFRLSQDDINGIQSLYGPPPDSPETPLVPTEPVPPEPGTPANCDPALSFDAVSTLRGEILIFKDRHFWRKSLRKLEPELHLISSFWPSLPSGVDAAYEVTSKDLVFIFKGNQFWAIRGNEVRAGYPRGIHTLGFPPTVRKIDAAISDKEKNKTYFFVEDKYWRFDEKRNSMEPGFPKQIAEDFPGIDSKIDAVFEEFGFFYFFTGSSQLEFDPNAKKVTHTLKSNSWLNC

For `CN(C)c1ccc(/N=N/c2ccc(S(=O)(=O)NCCCC[C@H](NC(=O)OCC3c4ccccc4-c4ccccc43)C(=O)O)cc2)cc1` [compound 4-c], the “Hydrogel formation on contact with buffer” value in series [1] is on record as “did not form a hydrogel”.
As for Gly-Pro-Gln-Gly#Ile-Phe-Gly-Gln, the “Relative rate MMP-8” value in series [2] is given as 510. Also, the “Relative rate MMP-3” value in series [3] was 130. The “Relative rate MMP-1” value in series [4] is reported as 369. Besides, the “Relative rate MMP-9” value in series [5] is reported as 390. Further, the “Relative rate MMP-7” value in series [6] is recorded as 140. For the same molecule, the “Relative rate MMP-2” value in series [7] is on record as 380.
Take Gly-Pro-Gln-Gly#Ile-Trp-Gly-Gln: in series [2], the “Relative rate MMP-8” value is on record as 930. Further, in series [3], the “Relative rate MMP-3” value is 280. In addition, the “Relative rate MMP-1” value in series [4] is 840. Besides, the “Relative rate MMP-9” value in series [5] was 140. Besides, the “Relative rate MMP-7” value in series [6] is on record as 330. Besides, the “Relative rate MMP-2” value in series [7] is 310.
Turning to Gly-Pro-Gln-Gly#Leu-Ala-Gly-Gln, in series [2], the “Relative rate MMP-8” value is 180. Besides, in series [3], the “Relative rate MMP-3” value is listed as 110. Further, the “Relative rate MMP-1” value in series [4] is listed as 130. Further, in series [5], the “Relative rate MMP-9” value is recorded as 80. For the same molecule, in series [6], the “Relative rate MMP-7” value is reported as 300. The “Relative rate MMP-2” value in series [7] is given as 88.
Take Gly-Pro-Gln-Gly#Phe-Ala-Gly-Gln: the “Relative rate MMP-8” value in series [2] is given as 46. The “Relative rate MMP-3” value in series [3] is recorded as 140. For the same molecule, in series [4], the “Relative rate MMP-1” value is given as 20. In series [5], the “Relative rate MMP-9” value is 24. Further, in series [6], the “Relative rate MMP-7” value was 74. Moreover, the “Relative rate MMP-2” value in series [7] is recorded as 55.
For the molecule Gly-Pro-Gln-Gly#Pro-Ala-Gly-Gln, in series [2], the “Relative rate MMP-8” value is <0.5. Also, the “Relative rate MMP-3” value in series [3] is reported as <0.5. Besides, the “Relative rate MMP-1” value in series [4] is given as <0.5. The “Relative rate MMP-9” value in series [5] is given as <5.0. Moreover, in series [6], the “Relative rate MMP-7” value is recorded as <5.0. The “Relative rate MMP-2” value in series [7] is on record as <5.0.
On to Gly-Pro-Gln-Gly#Ser-Ala-Gly-Gln, for which the “Relative rate MMP-8” value in series [2] was 1.6. Moreover, the “Relative rate MMP-3” value in series [3] was 45. In addition, the “Relative rate MMP-1” value in series [4] is given as 5.9. In series [5], the “Relative rate MMP-9” value is on record as <5.0. Moreover, the “Relative rate MMP-7” value in series [6] is listed as 5.5. Moreover, in series [7], the “Relative rate MMP-2” value is given as 15.
As to Gly-Pro-Gln-Gly#Trp-Ala-Gly-Gln, the “Relative rate MMP-8” value in series [2] is 49. Further, in series [3], the “Relative rate MMP-3” value is reported as 120. Further, the “Relative rate MMP-1” value in series [4] is given as <0.5. Moreover, the “Relative rate MMP-9” value in series [5] is given as <5.0. Also, the “Relative rate MMP-7” value in series [6] is on record as <5.0. Moreover, the “Relative rate MMP-2” value in series [7] is <5.0.
For Gly-Pro-Gln-Gly#Tyr-Ala-Gly-Gln, in series [2], the “Relative rate MMP-8” value is on record as 390. The “Relative rate MMP-3” value in series [3] is 150. The “Relative rate MMP-1” value in series [4] is 50. Moreover, the “Relative rate MMP-9” value in series [5] was 96. For the same molecule, the “Relative rate MMP-7” value in series [6] is 21. For the same molecule, in series [7], the “Relative rate MMP-2” value is reported as 50.
In the case of Gly-Pro-Gln-Gly#Val-Ala-Gly-Gln, in series [2], the “Relative rate MMP-8” value is 9.0. Moreover, in series [3], the “Relative rate MMP-3” value was 53. In series [4], the “Relative rate MMP-1” value was 9.1. Also, the “Relative rate MMP-9” value in series [5] is on record as 25. For the same molecule, the “Relative rate MMP-7” value in series [6] is recorded as 17. In series [7], the “Relative rate MMP-2” value is 30.
Gly-Pro-Gln-Leu#Ile-Ala-Gly-Gln: the “Relative rate MMP-8” value in series [2] is 54. For the same molecule, in series [3], the “Relative rate MMP-3” value is 170. In series [4], the “Relative rate MMP-1” value is recorded as 27. In addition, the “Relative rate MMP-9” value in series [5] is 8.8. Further, the “Relative rate MMP-7” value in series [6] is 49. In addition, the “Relative rate MMP-2” value in series [7] is reported as 21.
As to Gly-Pro-Gln-Met#Ile-Ain-Gly-Gln, the “Relative rate MMP-8” value in series [2] is recorded as 140. Further, in series [3], the “Relative rate MMP-3” value was 110. For the same molecule, the “Relative rate MMP-1” value in series [4] is on record as 200. For the same molecule, in series [5], the “Relative rate MMP-9” value is given as 12. Further, the “Relative rate MMP-7” value in series [6] is 150. Moreover, in series [7], the “Relative rate MMP-2” value is listed as 22.
Consider Gly-Pro-Gln-Phe#Ile-Ala-Gly-Gln, for which the “Relative rate MMP-8” value in series [2] is on record as 170. In series [3], the “Relative rate MMP-3” value was 68. Moreover, in series [4], the “Relative rate MMP-1” value was 95. In series [5], the “Relative rate MMP-9” value is on record as 26. Moreover, the “Relative rate MMP-7” value in series [6] is reported as 63. In series [7], the “Relative rate MMP-2” value is 15.
On to Gly-Pro-Gln-Pro#Ile-Ala-Gly-Gln, for which the “Relative rate MMP-8” value in series [2] is 190. Besides, the “Relative rate MMP-3” value in series [3] is 170. Besides, the “Relative rate MMP-1” value in series [4] is reported as 260. In addition, the “Relative rate MMP-9” value in series [5] is listed as 46. The “Relative rate MMP-7” value in series [6] is on record as 140. The “Relative rate MMP-2” value in series [7] is reported as 32.
Turning to Gly-Pro-Gln-Tyr#Ile-Ala-Gly-Gln, the “Relative rate MMP-8” value in series [2] is 180. Besides, the “Relative rate MMP-3” value in series [3] was 68. In addition, the “Relative rate MMP-1” value in series [4] is listed as 130. Besides, in series [5], the “Relative rate MMP-9” value is given as 30. Moreover, in series [6], the “Relative rate MMP-7” value was 34. For the same molecule, the “Relative rate MMP-2” value in series [7] is given as 58.
Gly-Pro-Gln-Val#Ile-Ala-GLy-Gln: in series [2], the “Relative rate MMP-8” value was 7.9. Besides, the “Relative rate MMP-3” value in series [3] is 32. In addition, the “Relative rate MMP-1” value in series [4] is on record as 5.5. Further, the “Relative rate MMP-9” value in series [5] is reported as <5.0. The “Relative rate MMP-7” value in series [6] is listed as <5.0. Besides, the “Relative rate MMP-2” value in series [7] is <5.0.
In the case of Gly-Pro-Hyp-Gly#Ile-Ala-Gly-Gln, the “Relative rate MMP-8” value in series [2] was 15. In series [3], the “Relative rate MMP-3” value is 83. Moreover, the “Relative rate MMP-1” value in series [4] was 11. Further, in series [5], the “Relative rate MMP-9” value is 15. Moreover, the “Relative rate MMP-7” value in series [6] is listed as 17. In addition, the “Relative rate MMP-2” value in series [7] is given as 32.
As for Gly-Pro-Leu-Gly#Ile-Ala-Gly-Gln, the “Relative rate MMP-8” value in series [2] is 260. Besides, in series [3], the “Relative rate MMP-3” value is given as 190. In addition, in series [4], the “Relative rate MMP-1” value is reported as 150. In addition, the “Relative rate MMP-9” value in series [5] is recorded as 290. In addition, in series [6], the “Relative rate MMP-7” value is reported as 420. Also, in series [7], the “Relative rate MMP-2” value was 330.
Turning to Gly-Pro-Tyr-Gly#Ile-Ala-Gly-Gln, the “Relative rate MMP-8” value in series [2] is 110. In addition, the “Relative rate MMP-3” value in series [3] is on record as 230. Moreover, the “Relative rate MMP-1” value in series [4] is 200. The “Relative rate MMP-9” value in series [5] is 150. The “Relative rate MMP-7” value in series [6] was 240. The “Relative rate MMP-2” value in series [7] is reported as 200.
Turning to Gly-Pro-Val-Gly#Ile-Ala-Gly-Gln, the “Relative rate MMP-8” value in series [2] is on record as 30. Further, in series [3], the “Relative rate MMP-3” value is 160. The “Relative rate MMP-1” value in series [4] was 32. Moreover, the “Relative rate MMP-9” value in series [5] was 110. For the same molecule, the “Relative rate MMP-7” value in series [6] was 57. Further, the “Relative rate MMP-2” value in series [7] is reported as 130.
In the case of Gly-Pto-Arg-Gly#Ile-Ala-Gly-Gln, the “Relative rate MMP-8” value in series [2] is listed as 32. Also, the “Relative rate MMP-3” value in series [3] was 99. The “Relative rate MMP-1” value in series [4] was 17. In series [5], the “Relative rate MMP-9” value is given as 83. Further, the “Relative rate MMP-7” value in series [6] is 13. In addition, the “Relative rate MMP-2” value in series [7] is given as 160.
On to “Gly-Pto-Met-Gly#Ile-Ala-Gly-Gln (IAGQ; printed: Ile-Ala-Gly-Gln)”, for which the “Relative rate MMP-8” value in series [2] is 160. Moreover, the “Relative rate MMP-3” value in series [3] is 120. For the same molecule, the “Relative rate MMP-1” value in series [4] is given as 160. Also, the “Relative rate MMP-9” value in series [5] is 180. Besides, the “Relative rate MMP-7” value in series [6] was 400. Also, the “Relative rate MMP-2” value in series [7] is 120.
